# Source: patent US7893266B2, “Detection of cancer cells in vitro using sigma-2 receptor ligands as radiotracers” (Washington University, priority 2003, dated 2011)
# Read-outs that look alike come from different tables or passages of the source.
# How the values were obtained:
# [1] = molecular target: T1, σ2 receptors in the breast tumors (Mus musculus, UniProt Q8VD00); experiment: In vivo blocking studies with YUN 143 in tumor-bearing mice; conditions: blocking agent YUN 143 (1 mg/kg, i.v.); time point of highest % I.D./gram tumor
# T1 construct: mature Balb/c mice that were implanted with EMT-6 mammary tumors; from tissue; host or cells: EMT-6 mammary tumours in Balb/c mice, in vivo
# T1 sequence (Q8VD00 1-176): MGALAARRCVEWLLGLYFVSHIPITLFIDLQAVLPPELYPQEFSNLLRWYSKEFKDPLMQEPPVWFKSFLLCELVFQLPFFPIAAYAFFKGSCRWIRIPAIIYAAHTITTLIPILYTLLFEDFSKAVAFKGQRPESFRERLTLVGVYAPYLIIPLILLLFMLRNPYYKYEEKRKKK
# Excerpt: The blocking agent was YUN 143, which has a high affinity for σ1 and σ2 receptors. Animals were sacrificed at the time point displaying the highest % I.D./gram tumor.
# The inventors then conducted blocking studies in order to confirm that the radiotracer labeled σ2 receptors in the breast tumors. […] We have previously reported that [^18F]YUN 143 labels σ1 and σ2 receptors in breast tumor xenografts (Mach et al., 2001).
# EMT-6 mammary tumors [2] = experiment: Comparison with [18F]FLT in tumor-bearing mice; type: in vivo; conditions: 1 hr for [11C]10; 2 hr post-i.v. injection for [76Br]6 and [125I]6i
# EMT-6 mammary tumors [3] = experiment: Biodistribution study of [76Br]6 (Example 4), low and high dose groups; type: in vivo, Balb/C mice
# Excerpt: This compound was studied in mature Balb/C mice that were implanted with EMT-6 mammary tumors. The mice were implanted in the nape of the neck 7 days prior to the study. The biodistribution study consisted of three groups: 1 hr low dose (≈6 μCi), 4 hr low dose and a 4 hr high dose (≈150 μCi). The % ID/g at 1 hr for tumor, brain, fat, blood and liver were 4.0±0.4, 0.25±0.02, 1.1±0.4, 2.1±0.3 and 5.4±0.4, respectively. At 4 hr for the low dose animals the values decreased to 1.2±0.2, 0.15±0.02, 0.3±0.2, 0.82±0.08 and 1.3±0.2, respectively. […] The activity injected into the high dose animals was enough to perform microPET® imaging studies. […] This initial study has shown that this σ2 receptor compound has a high uptake into EMT-6 mammary tumors and can be imaged non-invasively. (MicroPET® is a dedicated PET scanner designed for high resolution imaging of small laboratory animals. It is available from Concorde Microsystems, Inc. 10427 Cogdill Rd, Suite 500 Knoxville, Tenn. 37932 USA.)
# [4] = Biodistribution in EMT-6 BALB/C mice; type: in vivo; conditions: Balb/c, mouse, intravenous
# Procedure: (§1) As used herein, the term “tumor:background ratio” (i.e., tumor:fat ratio, tumor:muscle ratio, tumor:lung ratio, tumor:blood ratio) refers to the % injected dose/g tissue of the radiotracer in the tumor divided by the % injected dose/g […] in the background tissue (i.e., fat, muscle, lung, blood).
# (§2) B. Biodistribution Studies of ^11C analogs in Tumor-Bearing Mice. Biodistribution studies were conducted in mature Balb/c mice that were implanted with EMT-6 mammary tumors identified herein as EMT-6 BALB/C mice to create laboratory tumor-bearing mice. The mice were implanted in the scapular region seven days prior to the study. Animals were injected with 100-150 μCi of the ^11C-labeled radiotracer and the animals were sacrificed at 5, 30, and 60 min post-i.v. injection of the radiotracer.
# (§3) A series of biodistribution studies in tumor-bearing mice were also conducted with [^76Br]8, [^76Br]6, [^125I]8i, and [^125I]6i.
# EMT-6 mammary tumors [5] = experiment: Biodistribution in EMT-6 BALB/C mice; type: in vivo
# Procedure: as §1, §2, §3
# [6] = kidney, read-out: % ID per gram kidney
# [7] = liver, read-out: % ID per gram liver
# [8] = spleen, read-out: % ID per gram spleen
structure (smiles),measurement,setting,value
COc1cc2c(cc1OC)CN(CCCCNC(=O)c1cc([76Br])cc(OC)c1OC)CC2 [[^76Br]6],in vivo blocking study result,[1],consistent with the labeling of σ2 receptors in vivo
same,tumor:background ratios compared with [18F]FLT,EMT-6 mammary tumors [2],higher tumor:background ratios greater than that observed with [^18F]FLT
same,% ID/g for the 4 hr high dose animals versus low dose,"EMT-6 mammary tumors [3]; 4 hr, high dose (≈150 μCi)",not significantly different
same,% ID/g blood,"EMT-6 mammary tumors [3]; 1 hr, low dose (≈6 μCi)",2.1±0.3 % ID/g
same,% ID/g blood,"EMT-6 mammary tumors [3]; 4 hr, low dose",0.82±0.08 % ID/g
same,% ID/g brain,"EMT-6 mammary tumors [3]; 1 hr, low dose (≈6 μCi)",0.25±0.02 % ID/g
same,% ID/g brain,"EMT-6 mammary tumors [3]; 4 hr, low dose",0.15±0.02 % ID/g
same,% ID/g fat,"EMT-6 mammary tumors [3]; 1 hr, low dose (≈6 μCi)",1.1±0.4 % ID/g
same,% ID/g fat,"EMT-6 mammary tumors [3]; 4 hr, low dose",0.3±0.2 % ID/g
same,% ID/g liver,"EMT-6 mammary tumors [3]; 1 hr, low dose (≈6 μCi)",5.4±0.4 % ID/g
same,% ID/g liver,"EMT-6 mammary tumors [3]; 4 hr, low dose",1.3±0.2 % ID/g
same,% ID/g tumor,"EMT-6 mammary tumors [3]; 1 hr, low dose (≈6 μCi)",4.0±0.4 % ID/g
same,% ID/g tumor,"EMT-6 mammary tumors [3]; 4 hr, low dose",1.2±0.2 % ID/g
same,tissue uptake at 2 h,[4]; [6],1.85 ± 0.54 %ID/g
same,tissue uptake at 4 h,[4]; [6],0.57 ± 0.12 %ID/g
same,tissue uptake at 2 h,[4]; [7],1.67 ± 0.1 %ID/g
same,tissue uptake at 4 h,[4]; [7],0.71 ± 0.08 %ID/g
same,tissue uptake at 4 h,"[4]; lung, read-out: % ID per gram lung",0.29 ± 0.03 %ID/g
same,tissue uptake at 5 min,"[4]; spleen, 5 min, read-out: % ID per gram spleen",12.5 ± 1.46 %ID/g
same,tissue uptake at 30 min,"[4]; spleen, 30 min, read-out: % ID per gram spleen",6.91 ± 1.22 %ID/g
same,tissue uptake at 1 h,"[4]; spleen, 1 hour, read-out: % ID per gram spleen",2.61 ± 0.62 %ID/g
same,tissue uptake at 2 h,[4]; [8],0.6 ± 0.03 %ID/g
same,tissue uptake at 4 h,[4]; [8],0.2 ± 0.03 %ID/g
same,ratio Tumor:blood,EMT-6 mammary tumors [5]; 5 min,2.25 ± 0.28
same,ratio Tumor:fat,EMT-6 mammary tumors [5]; 5 min,1.30 ± 0.24
same,ratio Tumor:heart,EMT-6 mammary tumors [5]; 5 min,0.65 ± 0.07
same,ratio Tumor:lung,EMT-6 mammary tumors [5]; 5 min,0.19 ± 0.02
same,ratio Tumor:muscle,EMT-6 mammary tumors [5]; 5 min,1.32 ± 0.16
same,ratio Tumor:blood,EMT-6 mammary tumors [5]; 30 min,2.41 ± 0.08
same,ratio Tumor:fat,EMT-6 mammary tumors [5]; 30 min,2.35 ± 0.34
same,ratio Tumor:heart,EMT-6 mammary tumors [5]; 30 min,2.48 ± 0.17
same,ratio Tumor:lung,EMT-6 mammary tumors [5]; 30 min,0.93 ± 0.09
same,ratio Tumor:muscle,EMT-6 mammary tumors [5]; 30 min,3.70 ± 1.06
same,ratio Tumor:blood,EMT-6 mammary tumors [5]; 1 hour,2.53 ± 0.54
same,ratio Tumor:fat,EMT-6 mammary tumors [5]; 1 hour,5.09 ± 1.39
same,ratio Tumor:heart,EMT-6 mammary tumors [5]; 1 hour,3.72 ± 0.72
same,ratio Tumor:lung,EMT-6 mammary tumors [5]; 1 hour,1.64 ± 0.30
same,ratio Tumor:muscle,EMT-6 mammary tumors [5]; 1 hour,6.76 ± 2.09
same,ratio Tumor:blood,EMT-6 mammary tumors [5]; 2 hour,3.79 ± 0.99
same,ratio Tumor:fat,EMT-6 mammary tumors [5]; 2 hour,7.97 ± 1.95
same,ratio Tumor:heart,EMT-6 mammary tumors [5]; 2 hour,5.77 ± 0.60
same,ratio Tumor:lung,EMT-6 mammary tumors [5]; 2 hour,2.30 ± 0.13
same,ratio Tumor:muscle,EMT-6 mammary tumors [5]; 2 hour,8.81 ± 0.91
same,ratio Tumor:blood,EMT-6 mammary tumors [5]; 4 hour,3.17 ± 0.58
same,ratio Tumor:fat,EMT-6 mammary tumors [5]; 4 hour,20.69 ± 10.77
same,ratio Tumor:heart,EMT-6 mammary tumors [5]; 4 hour,6.24 ± 1.28
same,ratio Tumor:lung,EMT-6 mammary tumors [5]; 4 hour,2.36 ± 0.46
same,ratio Tumor:muscle,EMT-6 mammary tumors [5]; 4 hour,9.48 ± 2.14
same,% ID per gram blood,EMT-6 mammary tumors [5]; 5 min,2.12 ± 0.20 % ID per gram
same,% ID per gram blood,EMT-6 mammary tumors [5]; 30 min,2.20 ± 0.24 % ID per gram
same,% ID per gram blood,EMT-6 mammary tumors [5]; 1 hour,1.60 ± 0.22 % ID per gram
same,% ID per gram blood,EMT-6 mammary tumors [5]; 2 hour,0.46 ± 0.07 % ID per gram
same,% ID per gram blood,EMT-6 mammary tumors [5]; 4 hour,0.21 ± 0.03 % ID per gram
same,% ID per gram bone,EMT-6 mammary tumors [5]; 5 min,3.10 ± 0.67 % ID per gram
same,% ID per gram bone,EMT-6 mammary tumors [5]; 30 min,2.76 ± 0.58 % ID per gram
same,% ID per gram bone,EMT-6 mammary tumors [5]; 1 hour,1.38 ± 0.09 % ID per gram
same,% ID per gram bone,EMT-6 mammary tumors [5]; 2 hour,0.56 ± 0.20 % ID per gram
same,% ID per gram bone,EMT-6 mammary tumors [5]; 4 hour,0.12 ± 0.03 % ID per gram
same,% ID per gram brain,EMT-6 mammary tumors [5]; 5 min,1.60 ± 0.15 % ID per gram
same,% ID per gram brain,EMT-6 mammary tumors [5]; 30 min,0.41 ± 0.06 % ID per gram
same,% ID per gram brain,EMT-6 mammary tumors [5]; 1 hour,0.17 ± 0.02 % ID per gram
same,% ID per gram brain,EMT-6 mammary tumors [5]; 2 hour,0.05 ± 0.00 % ID per gram
same,% ID per gram brain,EMT-6 mammary tumors [5]; 4 hour,0.03 ± 0.00 % ID per gram
same,% ID per gram fat,EMT-6 mammary tumors [5]; 5 min,3.78 ± 0.97 % ID per gram
same,% ID per gram fat,EMT-6 mammary tumors [5]; 30 min,2.27 ± 0.16 % ID per gram
same,% ID per gram fat,EMT-6 mammary tumors [5]; 1 hour,0.81 ± 0.16 % ID per gram
same,% ID per gram fat,EMT-6 mammary tumors [5]; 2 hour,0.22 ± 0.05 % ID per gram
same,% ID per gram fat,EMT-6 mammary tumors [5]; 4 hour,0.04 ± 0.02 % ID per gram
same,% ID per gram heart,EMT-6 mammary tumors [5]; 5 min,7.31 ± 0.70 % ID per gram
same,% ID per gram heart,EMT-6 mammary tumors [5]; 30 min,2.15 ± 0.30 % ID per gram
same,% ID per gram heart,EMT-6 mammary tumors [5]; 1 hour,1.08 ± 0.07 % ID per gram
same,% ID per gram heart,EMT-6 mammary tumors [5]; 2 hour,0.30 ± 0.03 % ID per gram
same,% ID per gram heart,EMT-6 mammary tumors [5]; 4 hour,0.11 ± 0.02 % ID per gram
same,% ID per gram kidney,EMT-6 mammary tumors [5]; 5 min,31.20 ± 2.92 % ID per gram
same,% ID per gram kidney,EMT-6 mammary tumors [5]; 30 min,18.51 ± 2.66 % ID per gram
same,% ID per gram kidney,EMT-6 mammary tumors [5]; 1 hour,10.81 ± 1.72 % ID per gram
same,% ID per gram liver,EMT-6 mammary tumors [5]; 5 min,10.99 ± 0.29 % ID per gram
same,% ID per gram liver,EMT-6 mammary tumors [5]; 30 min,8.85 ± 0.52 % ID per gram
same,% ID per gram liver,EMT-6 mammary tumors [5]; 1 hour,4.58 ± 0.36 % ID per gram
same,% ID per gram lung,EMT-6 mammary tumors [5]; 5 min,24.64 ± 2.74 % ID per gram
same,% ID per gram lung,EMT-6 mammary tumors [5]; 30 min,5.81 ± 1.12 % ID per gram
same,% ID per gram lung,EMT-6 mammary tumors [5]; 1 hour,2.45 ± 0.17 % ID per gram
same,% ID per gram lung,EMT-6 mammary tumors [5]; 2 hour,0.74 ± 0.04 % ID per gram
same,% ID per gram muscle,EMT-6 mammary tumors [5]; 5 min,3.62 ± 0.27 % ID per gram
same,% ID per gram muscle,EMT-6 mammary tumors [5]; 30 min,1.54 ± 0.49 % ID per gram
same,% ID per gram muscle,EMT-6 mammary tumors [5]; 1 hour,0.61 ± 0.11 % ID per gram
same,% ID per gram muscle,EMT-6 mammary tumors [5]; 2 hour,0.20 ± 0.03 % ID per gram
same,% ID per gram muscle,EMT-6 mammary tumors [5]; 4 hour,0.07 ± 0.01 % ID per gram
same,% ID per gram tumor,EMT-6 mammary tumors [5]; 5 min,4.78 ± 0.78 % ID per gram
same,% ID per gram tumor,EMT-6 mammary tumors [5]; 30 min,5.31 ± 0.62 % ID per gram
same,% ID per gram tumor,EMT-6 mammary tumors [5]; 1 hour,3.98 ± 0.58 % ID per gram
same,% ID per gram tumor,EMT-6 mammary tumors [5]; 2 hour,1.71 ± 0.17 % ID per gram
same,% ID per gram tumor,EMT-6 mammary tumors [5]; 4 hour,0.68 ± 0.15 % ID per gram
